The target of assay [1] is gingipain-1 (Porphyromonas gingivalis, UniProt P28784). Briefly: biochemical. The format is biochemical. The settings on record: for Activity +Gly-Gly: 0.1 mM compound, 50 mM Gly-Gly; for activity at 100 µM / activity at 1000 µM / activity at 10000 µM: pH 7.5, read-out: Activity -Gly-Gly; for stimulation of amidolytic activity: thiol / reducing compounds.
The test system of assay [2] is gingipain-1. Briefly: biochemical. The settings on record: Sephadex G-150 peak fractions. Format: biochemical, Porphyromonas gingivalis.
Assay [3] concerns guinea pig skin. Format: in vivo. The settings on record: 10^-5 M.

This note sets out measurements from US6274718A (priority 2000, dated 2001).

Where a SMILES comes first, the peptide text is derived from it.

Sequence of gingipain-1 (Porphyromonas gingivalis, UniProt P28784) (P28784 228-719): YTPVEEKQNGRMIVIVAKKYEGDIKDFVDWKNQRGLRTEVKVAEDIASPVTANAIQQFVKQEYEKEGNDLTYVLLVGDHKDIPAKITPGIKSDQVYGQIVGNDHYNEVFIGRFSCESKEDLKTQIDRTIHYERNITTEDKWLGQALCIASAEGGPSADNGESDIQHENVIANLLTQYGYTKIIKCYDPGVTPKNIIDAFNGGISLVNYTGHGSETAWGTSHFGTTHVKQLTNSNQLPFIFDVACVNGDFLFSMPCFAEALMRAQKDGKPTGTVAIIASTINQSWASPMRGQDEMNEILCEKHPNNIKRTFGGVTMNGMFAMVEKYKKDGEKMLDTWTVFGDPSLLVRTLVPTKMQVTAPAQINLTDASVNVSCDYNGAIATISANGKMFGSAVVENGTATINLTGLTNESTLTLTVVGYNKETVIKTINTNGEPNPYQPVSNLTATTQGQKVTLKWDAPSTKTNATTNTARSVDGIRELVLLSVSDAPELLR

As to `O[C@H](CS)[C@H](O)CS` (racemic) [Dithiothreitol], in assay [1], the “Activity +Gly-Gly” value turned out to be 636%, the activity at 100 µM is 159%, the activity at 1000 µM amounted to 432% and the activity at 10000 µM stood at 685%.
For `N[C@@H](CS)C(=O)O` [Cysteine], in assay [1], the activity at 100 µM worked out at 685% and the “stimulation of amidolytic activity” value is listed as “most efficient”.
Regarding `N[C@@H](CCC(=O)N[C@@H](CS)C(=O)NCC(=O)O)C(=O)O` [Glutathione], in assay [1], the “Activity +Gly-Gly” value is listed as 853%, the activity at 100 µM was 208%, the activity at 1000 µM amounted to 593% and the activity at 10000 µM was 770%.
In the case of `NCC(=O)NCC(=O)O` [Gly-Gly, glycyl-glycine] (H-Gly-Gly-OH), the “enhancement of Bz-L-Arg-pNA hydrolytic activity” value in assay [2] is given as “enhanced many-fold”.
`OCCS` [Mercaptoethanol]: in assay [1], the “Activity +Gly-Gly” value was determined as 627%, the activity at 100 µM stood at 165%, the activity at 1000 µM amounted to 456% and the activity at 10000 µM was found to be 685%.
As for `NCCS` [cysteamine], in assay [1], the “stimulation of amidolytic activity” value is listed as “most efficient”.
For `NCC(N)=O` [glycine amide], the “enhancement of Bz-L-Arg-pNA hydrolytic activity” value in assay [2] is “enhanced many-fold”.
`NCC(=O)O` [glycine]: in assay [1] (preliminary kinetic data, kcat and Km both raised equally), the “effect of glycine and glycine analogues on kcat/Km” value is “kcat /Km ratio does not change”.

B1: soybean trypsin inhibitor: soybean trypsin inhibitor (SBTI) (protein, UniProt P01070 25-205, looked up)
Trypsin inhibitor A: DFVLDNEGNPLENGGTYYILSDITAFGGIRAAPTGNERCPLTVVQSRNELDKGIGTIISSPYRIRFIAEGHPLSLKFDSFAVIMLCVGIPTEWSVVEDLPEGPAVKIGENKDAMDGWFRLERVSDDEFNNYKLVFCPQQAEDDKCGDIGISIDHDDGTRRLVVSKNKPLVVQFQKLDKESL
In the case of B1, in assay [3], the “inhibition of vascular permeability enhancement” value is “inhibited”.
